pEC50, pIC50: −log10 of the molar value.
Key:
[1] = system: primary human fibroblasts derived from IPF patients (LL29 cells); assay: Inhibition of fibrotic process: αSMA staining in TGF-β1-treated primary human fibroblasts from IPF patients (LL29 cells); type: cell-based; conditions: Fibroblast, 96 h, LL29 cells treated with TGF-β1 (20 ng/mL), 4 days, 11-point dose-response from 10 μM to 1.87 nM, read-out: Inhibition of fibrosis EC50
Source text: The above synthesized compounds were screened using primary human fibroblasts (derived from IPF patients) treated with TGF-β1 to determine their ability to inhibit the fibrotic process.
Primary human fibroblasts derived from IPF patients (LL29 cells) [^1Xiaoqiu Liu, et. al., “Fibrotic Lung Fibroblasts Show Blunted Inhibition by cAMP Due to Deficient cAMP Response Element-Binding Protein Phosphorylation”, Journal of Pharmacology and Experimental Therapeutics (2005), 315(2), 678-687; ^2Watts, K. L., et. al., “RhoA signaling modulates cyclin D1 expression in human lung fibroblasts; implications for idiopathic pulmonary fibrosis”, Respiratory Research (2006), 7(1), 88] were obtained from American Type Culture Collection (ATCC) and expanded in F12 medium supplemented with 15% Fetal Bovine Serum and Penicillin/Streptomycin.
Each compound was dissolved in DMSO as a 10 mM stock and used to prepare compound source plates. Serial dilution (1:2, 11-point dose-response curves from 10 μM to 1.87 nM) and compound transfer was performed using the ECHO 550 (Labcyte, Sunnyvale, Calif.) into 384-well clear bottom assay plates (Greiner Bio-One) with appropriate DMSO backfill for a final DMSO concentration of 0.1%. LL29 cells were plated at 1,500 cells/well in 80 μl/well F12 medium supplemented with 1% Fetal Bovine Serum. One hour after addition of the cells, TGF-β1 (Peprotech; 20 ng/mL) was added to the plates to induce fibrosis (ref. 1 and 2 above). Wells treated with TGF-β1 and containing DMSO were used as controls. Cells were incubated at 37° C. and 5% CO2 for 4 days. Following incubation for 4 days, SYTOX green nucleic acid stain (Life Technologies [Thermo Fisher Scientific]) was added to the wells at a final concentration of 1 uM and incubated at room temperature for 30 min. Cells were then fixed using 4% formaldehyde (Electron Microscopy Sciences), washed 3 times with PBS followed by blocking and permeabilization using 3% Bovine Serum Albumin (BSA; Sigma) and 0.3% Triton X-100 (Sigma) in PBS. Cells were then stained with antibody specific to α-smooth muscle actin (αSMA; Abcam) (ref. 1 and 2 above) in 3% Bovine Serum Albumin (BSA; Sigma) and 0.3% Triton X-100 (Sigma) in PBS, and incubated overnight at 4° C. Cells were then washed 3 times with PBS, followed by incubation with Alexa Flor-647 conjugated secondary antibody (Life Technologies [Thermo Fisher Scientific]) and DAPI at room temperature for 1 hour. Cells were then washed 3 times with PBS and plates were sealed for imaging. αSMA staining was imaged by excitation at 630 nm and emission at 665 nm and quantified using the Compartmental Analysis program on the CellInsight CX5 (Thermo Scientific). Dead or apoptotic cells were excluded from analysis based on positive SYTOX green staining. % of total cells positive for αSMA were counted in each well and normalized to the average of 11 wells treated with TGF-β1 on the same plate using Dotmatics' Studies Software. The normalized averages (fold change over untreated) of 3 replicate wells for each compound concentration were used to create dose-responses curves and EC50 values were calculated using non-linear regression curve fit in the Dotmatics' Studies Software. The EC50 values are reported.

[2] = system: Wnt activity (Wnt-responsive Sp5 promoter-luciferase reporter in SW480 cells); assay: Wnt activity screening assay: Sp5-Luc reporter gene in SW480 colon carcinoma cells; type: cell-based; conditions: Homo sapiens
Summary of the method: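 IC50 values come from variable-slope four-parameter fits of luciferase signal normalized to DMSO wells. Stable Sp5-Luc reporter SW480 colon carcinoma cells were exposed to compounds in a 3-fold dilution series (source plates from 10 mM stock) for forty-two hours at 37 °C.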

pIC50 [2]	SMILES	pEC50 [1]
6.26	COc1cc(F)cc(-c2cncc3[nH]c(-c4n[nH]c5cnc(-c6cncc(NC(=O)CC(C)C)c6)cc45)nc23)c1 [Compound 1324, N-(5-(3-(7-(3-Fluoro-5-methoxyphenyl)-3H-imidazo[4,5-c]pyridin-2-yl)-1H-pyrazolo[3,4-c]pyridin-5-yl)pyridin-3-yl)-3-methylbutanamide]	≥ 8.05
6.19	c1ccc(CNCc2cncc(-c3cc4c(-c5nc6c(-c7ccsc7)cncc6[nH]5)n[nH]c4cn3)c2)cc1 [Compound 257, N-Benzyl-1-(5-(3-(7-(thiophen-3-yl)-3H-imidazo[4,5-c]pyridin-2-yl)-1H-pyrazolo[3,4-c]pyridin-5-yl)pyridin-3-yl)methanamine]	5.58
6.42	CN1CCN(c2cncc3[nH]c(-c4n[nH]c5cnc(-c6cncnc6)cc45)nc23)CC1 [Compound 234, 3-(7-(4-methylpiperazin-1-yl)-3H-imidazo[4,5-c]pyridin-2-yl)-5-(pyrimidin-5-yl)-1H-pyrazolo[3,4-c]pyridine]	6.02
7.77	Cc1ccc(-c2cncc3[nH]c(-c4n[nH]c5cnc(-c6cncc(NC(=O)C(C)(C)C)c6)cc45)nc23)s1 [Compound 346, N-(5-(3-(7-(5-Methylthiophen-2-yl)-3H-imidazo[4,5-c]pyridin-2-yl)-1H-pyrazolo[3,4-c]pyridin-5-yl)pyridin-3-yl)pivalamide]	7.52
7.48	O=C(Nc1cncc(-c2cc3c(-c4nc5c(-c6ccc(F)s6)cncc5[nH]4)n[nH]c3cn2)c1)C1CCC1 [Compound 332, N-(5-(3-(7-(5-Fluorothiophen-2-yl)-3H-imidazo[4,5-c]pyridin-2-yl)-1H-pyrazolo[3,4-c]pyridin-5-yl)pyridin-3-yl)cyclobutanecarboxamide]	5.98
7.15	CCCC(=O)Nc1cncc(-c2cc3c(-c4nc5c(-c6ccccc6F)cncc5[nH]4)n[nH]c3cn2)c1 [Compound 69, N-(5-(3-(7-(2-Fluorophenyl)-3H-imidazo[4,5-c]pyridin-2-yl)-1H-pyrazolo[3,4-c]pyridin-5-yl)pyridin-3-yl)butyramide]	7.36
6.25	CC(C)C(=O)Nc1cncc(-c2cc3c(-c4nc5c(N6CCN(C)CC6)cncc5[nH]4)n[nH]c3cn2)c1 [Compound 217, N-(5-(3-(7-(4-Methylpiperazin-1-yl)-3H-imidazo[4,5-c]pyridin-2-yl)-1H-pyrazolo[3,4-c]pyridin-5-yl)pyridin-3-yl)isobutyramide]	≤ 5.00
6.09	O=C(Nc1cncc(-c2cc3c(-c4nc5c(N6CCCCC6)cncc5[nH]4)n[nH]c3cn2)c1)C1CC1 [Compound 175, N-(5-(3-(7-(Piperidin-1-yl)-3H-imidazo[4,5-c]pyridin-2-yl)-1H-pyrazolo[3,4-c]pyridin-5-yl)pyridin-3-yl)cyclopropanecarboxamide]	≥ 8.05
7.40	Cc1ccncc1-c1cc2c(-c3nc4c(-c5ccsc5)cncc4[nH]3)n[nH]c2cn1 [Compound 239, 5-(4-Methylpyridin-3-yl)-3-(7-(thiophen-3-yl)-3H-imidazo[4,5-c]pyridin-2-yl)-1H-pyrazolo[3,4-c]pyridine]	≥ 8.05
6.53	c1ccc(CNCc2cncc(-c3cc4c(-c5nc6c(-c7cccnc7)cncc6[nH]5)n[nH]c4cn3)c2)cc1 [Compound 101, N-Benzyl-1-(5-(3-(7-(pyridin-3-yl)-3H-imidazo[4,5-c]pyridin-2-yl)-1H-pyrazolo[3,4-c]pyridin-5-yl)pyridin-3-yl)methanamine]	≤ 5.00
< 5.00	CCCC(=O)Nc1cncc(-c2cc3c(-c4nc5c(-c6ccncc6)cncc5[nH]4)n[nH]c3cn2)c1 [Compound 121, N-(5-(3-(7-(Pyridin-4-yl)-3H-imidazo[4,5-c]pyridin-2-yl)-1H-pyrazolo[3,4-c]pyridin-5-yl)pyridin-3-yl)butyramide]	≤ 5.00
